Results: PMC8070514, “Antibacterial and Antibiofilm Activities of Novel Antimicrobial Peptides against Multidrug-Resistant Enterotoxigenic Escherichia Coli” (International Journal of Molecular Sciences, 2021)
Ends that are not written are not given here.

Legend:
[1] = system: MDR ETEC strain (clinical isolate); test: Resistance of the MDR ETEC strain to conventional antibiotics; assay type: cell-based, Escherichia coli; conditions: method not given
Procedure: (§1) The MDR ETEC strain used in this study was a clinical isolate kindly provided by our co-author, Dr. Hui-Wen Chang from Department of Veterinary Medicine and Graduate Institute of Molecular and Comparative Pathobiology, School of Veterinary Medicine, National Taiwan University. […] Glycerol stocks (20%, v/v) were maintained at −86 °C for long-term storage.

[2] = system: MDR ETEC (multidrug-resistant enterotoxigenic Escherichia coli); conditions: MDR ETEC clinical isolate; 96-well microtiter plates, 10^4 CFU/mL inoculum, 48 h at 37 °C, absorbance 600 nm; lowest concentration that completely inhibits visible growth
Procedure: as §1
Cultures were examined for growth after 48 h incubation at 37 °C, and the absorbance at 600 nm was measured.

[3] = Hemolytic activity, minimal hemolysis concentration (MHC); assay type: cell-based; conditions: method not described
[4] = system: intestinal porcine epithelial cell line-1 (IPEC-1); test: Cell viability (MTT) assay, IPEC-1; assay type: cell-based; conditions: IPEC-1, 24 h exposure
Procedure: (§2) The IPEC-1 and IPEC-J2 cell lines were kindly provided by Dr. Je-Ruei Liu from Institute of Biotechnology and Department of Animal Science and Technology, National Taiwan University. The culture conditions and protocols were according to Koh et al. with slight modifications. Both IPEC-1 and IPEC-J2 cells were seeded on 9-cm cell culture dishes and were cultured and maintained in Dulbecco’s modified Eagle medium (DMEM)/nutrient mixture F-12 (GeneDireX, Taipei, Taiwan) supplemented with 10% fetal bovine serum (FBS; Hyclone, Cytiva, Washington DC, USA). The cultures were maintained in a humidified incubator in an atmosphere of 5% CO2 at 37 °C. After 4 to 5 days of culturing, both cell lines became confluent. Cell monolayers were washed with 3–5 mL Dulbecco’s phosphate buffered saline (DPBS, Amresco, Solon, OH, USA) and trypsinized with 1× trypsin-EDTA. The detached cells were pelleted at 200× g for 5 min, re-suspended in antibiotic-free medium, and used for subsequent adherence assays. […]
(§3) The viability of both IPEC-1 and IPEC-J2 cells after treated with AMP Q4-15a-1 was evaluated using 3-(4,5-dimethylthiazol-2-yl)-2,5-diphenyltetrazolium bromide (MTT, Amresco, Solon, OH, USA) assays performed in triplicate in three independent experiments. […] Absorbance at 570 nm of the maximum was detected by a multimode microplate reader SpectraMax M2 (Molecular Devices, San Jose, CA, USA). […]

[5] = system: intestinal porcine epithelial cell line-J2 (IPEC-J2); test: Cell viability (MTT) assay, IPEC-J2; assay type: cell-based; conditions: IPEC-J2, 24 h exposure
Procedure: as §2, §3

[6] = system: Acinetobacter baumannii biofilms; conditions: 32 and 64 μg/mL; cited from earlier work
Source text: Biofilm is a microbial community that adheres to the surface of various substances and encapsulates themselves in an autologous extracellular matrix. It is a critical issue to manage biofilms in clinical treatment. The matrix of the biofilm plays an important role in the mechanism of resistance to antibiotics, which constitutes a barrier to delay or prevent the interaction of antibiotics with microbial cells, depending on the extracellular polymeric substances and the charge of antimicrobial agents. The latter can be isolated or repelled, thereby reducing its effect on biofilms [[36],[3 ...

| Compound | Susceptibility of the MDR ETEC strain [1] | further results |
| --- | --- | --- |
| CC1(C)S[C@@H]2[C@H](NC(=O)[C@H](N)c3ccccc3)C(=O)N2[C@H]1C(=O)O [ampicillin] | resistant |  |
| CC1=C(C(=O)O)N2C(=O)[C@@H](NC(=O)[C@H](N)c3ccc(O)cc3)[C@H]2SC1 [cefadroxil] | resistant |  |
| C=CC1=C(C(=O)O)N2C(=O)[C@@H](NC(=O)/C(=N\OCC(=O)O)c3csc(N)n3)[C@H]2SC1 [cefixime] | resistant |  |
| CC(C)(O/N=C(\C(=O)N[C@@H]1C(=O)N2C(C(=O)[O-])=C(C[n+]3ccccc3)CS[C@H]12)c1csc(N)n1)C(=O)O [ceftazidime] | resistant |  |
| CO/N=C(\C(=O)N[C@@H]1C(=O)N2C(C(=O)O)=C(COC(N)=O)CS[C@H]12)c1ccco1 [cefuroxime] | resistant |  |
| CC(=O)OCC1=C(C(=O)O)N2C(=O)[C@@H](NC(=O)Cc3cccs3)[C@H]2SC1 [cephalothin] | resistant |  |
| O=C(N[C@H](CO)[C@H](O)c1ccc([N+](=O)[O-])cc1)C(Cl)Cl [chloramphenicol] | resistant |  |
| C[C@H]1c2cccc(O)c2C(=O)C2=C(O)[C@]3(O)C(=O)C(C(N)=O)=C(O)[C@@H](N(C)C)[C@@H]3[C@@H](O)[C@@H]21 [doxycycline] | resistant |  |
| CCN1CCN(c2cc3c(cc2F)c(=O)c(C(=O)O)cn3C2CC2)CC1 [enrofloxacin] | resistant |  |
| CC1CCc2cc(F)cc3c(=O)c(C(=O)O)cn1c23 (stereo not drawn) [flumequine] | resistant |  |
| CNC(C)C1CCC(N)C(OC2C(N)CC(N)C(OC3OCC(C)(O)C(NC)C3O)C2O)O1 (stereo not drawn) [gentamicin] | resistant |  |
| NC[C@H]1O[C@H](O[C@H]2[C@H](O)[C@@H](O[C@H]3O[C@H](CO)[C@@H](O)[C@H](N)[C@H]3O)[C@H](N)C[C@@H]2N)[C@H](O)[C@@H](O)[C@@H]1O [kanamycin] | resistant |  |
| CN(C)c1ccc(O)c2c1C[C@H]1C[C@H]3[C@H](N(C)C)C(O)=C(C(N)=O)C(=O)[C@@]3(O)C(O)=C1C2=O [minocycline] | resistant |  |
| CCn1cc(C(=O)O)c(=O)c2ccc(C)nc21 [nalidixic acid] | resistant |  |
| O=C1CN(/N=C/c2ccc([N+](=O)[O-])o2)C(=O)N1 [nitrofurantoin] | moderately susceptible |  |
| CCn1cc(C(=O)O)c(=O)c2cc(F)c(N3CCNCC3)cc21 [norfloxacin] | resistant |  |

| Compound | Susceptibility of the MDR ETEC strain [1] | further results |
| --- | --- | --- |
| CC1COc2c(N3CCN(C)CC3)c(F)cc3c(=O)c(C(=O)O)cn1c23 (stereo not drawn) [ofloxacin] | resistant |  |
| CCN1CCN(C(=O)N[C@@H](C(=O)N[C@@H]2C(=O)N3[C@@H]2SC(C)(C)[C@@H]3C(=O)O)c2ccccc2)C(=O)C1=O [piperacillin] | resistant |  |
| [H]/N=C(/N)N[C@H]1[C@H](O)[C@@H](O)[C@H](O[C@@H]2O[C@@H](C)[C@](O)(C=O)[C@H]2O[C@@H]2O[C@@H](CO)[C@H](O)[C@@H](O)[C@@H]2NC)[C@@H](N/C(N)=N\[H])[C@@H]1O [streptomycin] | resistant |  |
| CN(C)[C@@H]1C(O)=C(C(N)=O)C(=O)[C@@]2(O)C(O)=C3C(=O)c4c(O)cccc4[C@@](C)(O)[C@H]3C[C@@H]12 [tetracycline] | resistant |  |
| NC[C@H]1O[C@H](O[C@H]2[C@H](O)[C@@H](O[C@H]3O[C@H](CO)[C@@H](O)[C@H](N)[C@H]3O)[C@H](N)C[C@@H]2N)[C@H](N)C[C@@H]1O [tobramycin] | resistant |  |
| GANAAKKFATIAKKFINYLW [GW-Q4] |  | MIC [2]: 32 µg/mL; MHC (minimal hemolysis concentration) [3]: 128 µg/mL |
| GANAAKKFATIAKKFINYLW-NH2 [GW-Q4a] |  | MIC [2]: 8 µg/mL; MHC (minimal hemolysis concentration) [3]: 32 µg/mL |
| KKFATIAKKFINKLW [Peptide Q4-15-1] |  | MIC [2]: 8 µg/mL; MHC (minimal hemolysis concentration) [3]: 256 µg/mL |
| KKFATIAKKFINKLW-NH2 [Peptide Q4-15a-1] |  | MIC [2]: 4 µg/mL; MHC (minimal hemolysis concentration) [3]: 256 µg/mL; IC20 (cell viability, MTT) [4]: around 100 μg/mL; IC20 (cell viability, MTT) [5]: around 100 μg/mL |
| KKFATIAKKFINWLW [Peptide Q4-15-2] |  | MIC [2]: 4 µg/mL; MHC (minimal hemolysis concentration) [3]: 32 µg/mL |
| KKFATIAKKFINWLW-NH2 [Peptide Q4-15a-2] |  | MIC [2]: 2 µg/mL; MHC (minimal hemolysis concentration) [3]: 16 µg/mL |
| KKFATIAKKFINYLW [Peptide Q4-15] |  | MIC [2]: 8 µg/mL; MHC (minimal hemolysis concentration) [3]: 128 µg/mL |
| KKFATIAKKFINYLW-NH2 [Peptide Q4-15a] |  | MIC [2]: 4 µg/mL; MHC (minimal hemolysis concentration) [3]: 16 µg/mL |
| LL37 |  | Effect on two Acinetobacter baumannii biofilms [6]: inhibitory effect |
| penicillin | resistant |  |
| polymyxin B | moderately susceptible |  |
